{"source": "BindingDB's records for doi:10.1016/j.bmcl.2006.05.060", "about": "(University of Kentucky, 2006)", "key": {"[1]": {"test": "Displacement of radiolabeled DPDPE-Cl from delta opioid receptor in Hartley guinea pig brain"}, "[2]": {"test": "Displacement of radiolabeled NalBzOH from kappa3 opioid receptor in Hartley guinea pig brain"}}, "data": [{"molecule": "CN1CC[C@]23c4c5ccc(O)c4O[C@H]2[C@@H](OS(=O)(=O)O)CC[C@H]3[C@H]1C5", "note": "[DM6S]", "values": [{"measurement": "Ki", "setting": "[1]", "result": 19, "unit": "nM"}, {"measurement": "Ki", "setting": "[2]", "result": 7, "unit": "nM"}]}, {"molecule": "CN1CC[C@]23c4c5ccc(O)c4O[C@H]2[C@@H](OS(=O)(=O)O)C=C[C@H]3[C@H]1C5", "note": "[M6S]", "values": [{"measurement": "Ki", "setting": "[1]", "result": 18, "unit": "nM"}, {"measurement": "Ki", "setting": "[2]", "result": 6.3, "unit": "nM"}]}, {"molecule": "COc1ccc2c3c1O[C@H]1[C@@H](OS(=O)(=O)O)CC[C@H]4[C@@H](C2)N(C)CC[C@@]341", "note": "[DC6S]", "values": [{"measurement": "Ki", "setting": "[1]", "result": 1150, "unit": "nM"}, {"measurement": "Ki", "setting": "[2]", "result": 760, "unit": "nM"}]}, {"molecule": "COc1ccc2c3c1O[C@H]1[C@@H](OS(=O)(=O)O)C=C[C@H]4[C@@H](C2)N(C)CC[C@@]341", "note": "[C6S]", "values": [{"measurement": "Ki", "setting": "[1]", "result": 414, "unit": "nM"}, {"measurement": "Ki", "setting": "[2]", "result": 455, "unit": "nM"}]}, {"molecule": "CC(=O)Oc1ccc2c3c1O[C@H]1[C@@H](OS(=O)(=O)O)CC[C@H]4[C@@H](C2)N(C)CC[C@@]341", "note": "[DM3A6S]", "values": [{"measurement": "Ki", "setting": "[1]", "result": 325, "unit": "nM"}]}, {"molecule": "CC1(C)SSC(C)(C)[C@@H](NC(=O)[C@@H](N)Cc2ccc(O)cc2)C(=O)NCC(=O)N[C@@H](Cc2ccc(Cl)cc2)C(=O)N[C@H]1C(=O)O", "note": "[(4S,7S,13S)-13-[(S)-2-Amino-3-(4-hydroxy-phenyl)-propionylamino]-7-(4-chloro-benzyl)-3,3,14,14-tetramethyl-6,9,12-trioxo-1,2-dithia-5,8,11-triaza-cyclotetradecane-4-carboxylic acid]", "values": [{"measurement": "Ki", "setting": "[2]", "result": 1030, "unit": "nM"}]}, {"molecule": "CC(=O)Oc1ccc2c3c1O[C@H]1[C@@H](OS(=O)(=O)[O-])C=C[C@H]4[C@@H](C2)[N+](C)(C)CC[C@@]341", "note": "[MM3A6S]", "values": [{"measurement": "Ki", "setting": "[1]", "result": 842, "unit": "nM"}, {"measurement": "Ki", "setting": "[2]", "result": 400, "unit": "nM"}]}, {"molecule": "CCC(=O)Oc1ccc2c3c1O[C@H]1[C@@H](OS(=O)(=O)O)C=C[C@H]4[C@@H](C2)N(C)CC[C@@]341", "note": "[M3Pr6S]", "values": [{"measurement": "Ki", "setting": "[1]", "result": 40, "unit": "nM"}, {"measurement": "Ki", "setting": "[2]", "result": 20, "unit": "nM"}]}, {"molecule": "CSCC[C@H](NC(=O)[C@H](Cc1ccccc1)NC(=O)CNC(=O)CNC(=O)[C@@H](N)Cc1ccc(O)cc1)C(=O)O", "note": "[2-[(S)-2-(2-{2-[(S)-2-Amino-3-(4-hydroxy-phenyl)-propionylamino]-acetylamino}-acetylamino)-1-oxo-3-phenyl-propylamino]-4-methylsulfanyl-butyric acid]", "values": [{"measurement": "Ki", "setting": "[2]", "result": 277, "unit": "nM"}]}, {"molecule": "C[C@@H](NC(=O)[C@@H](N)Cc1ccc(O)cc1)C(=O)NCC(=O)N(C)[C@@H](Cc1ccccc1)C(=O)NCCO", "note": "[[tyrosyl-3,5-3H(N)]-D-Ala2-Mephe4-glyol5-enkephalin]", "values": [{"measurement": "Ki", "setting": "[2]", "result": 27, "unit": "nM"}]}, {"molecule": "C[N+]1(C)CC[C@]23c4c5ccc(OC(=O)c6ccccc6)c4O[C@H]2[C@@H](OS(=O)(=O)[O-])C=C[C@H]3[C@H]1C5", "note": "[MM3B6S]", "values": [{"measurement": "Ki", "setting": "[1]", "result": "> 10000", "unit": "nM"}, {"measurement": "Ki", "setting": "[2]", "result": "> 10000", "unit": "nM"}]}, {"molecule": "CN1CC[C@]23c4c5ccc(OC(=O)c6ccccc6)c4O[C@H]2[C@@H](OS(=O)(=O)O)CC[C@H]3[C@H]1C5", "note": "[DM3B6S]", "values": [{"measurement": "Ki", "setting": "[1]", "result": 1600, "unit": "nM"}]}, {"molecule": "CC(C)C(=O)Oc1ccc2c3c1O[C@H]1[C@@H](OS(=O)(=O)O)C=C[C@H]4[C@@H](C2)N(C)CC[C@@]341", "note": "[M3IBu6S]", "values": [{"measurement": "Ki", "setting": "[1]", "result": 584, "unit": "nM"}, {"measurement": "Ki", "setting": "[2]", "result": 266, "unit": "nM"}]}, {"molecule": "CN1CC[C@]23c4c5ccc(OC(=O)C(C)(C)C)c4O[C@H]2[C@@H](OS(=O)(=O)O)C=C[C@H]3[C@H]1C5", "note": "[M3P6S]", "values": [{"measurement": "Ki", "setting": "[1]", "result": 15, "unit": "nM"}, {"measurement": "Ki", "setting": "[2]", "result": 11, "unit": "nM"}]}, {"molecule": "CN1CC[C@]23c4c5ccc(OS(=O)(=O)O)c4O[C@H]2[C@@H](O)C=C[C@H]3[C@H]1C5", "note": "[M3S]", "values": [{"measurement": "Ki", "setting": "[1]", "result": "> 10000", "unit": "nM"}, {"measurement": "Ki", "setting": "[2]", "result": 1690, "unit": "nM"}]}, {"molecule": "C=CCN1CCC23c4c5ccc(O)c4O[C@@H]2C(=NNC(=O)c2ccccc2)CCC3(O)C1C5", "note": "(stereo not given in full)", "values": [{"measurement": "Ki", "setting": "[2]", "result": 0.3, "unit": "nM"}]}, {"molecule": "CN1CC[C@]23c4c5ccc(OC(=O)c6ccccc6)c4O[C@H]2[C@@H](OS(=O)(=O)O)C=C[C@H]3[C@H]1C5", "note": "[M3B6S]", "values": [{"measurement": "Ki", "setting": "[1]", "result": 600, "unit": "nM"}, {"measurement": "Ki", "setting": "[2]", "result": 513, "unit": "nM"}]}, {"molecule": "CC(=O)Oc1ccc2c3c1O[C@H]1[C@@H](OS(=O)(=O)O)C=C[C@H]4[C@@H](C2)N(C)CC[C@@]341", "note": "[M3A6S]", "values": [{"measurement": "Ki", "setting": "[1]", "result": 154, "unit": "nM"}, {"measurement": "Ki", "setting": "[2]", "result": 5.5, "unit": "nM"}]}]}
